Reference: ChEMBL document CHEMBL1201862, “PubChem BioAssay data set” (2004)
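Tested at 5 concentrations; 48 h exposure; 96-well plates; endpoints linearly interpolated, else capped at highest concentration. Abbreviation: GI50, concentration required for 50% inhibition of growth.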 Active and inactive are the calls of the source. No stated cut-off is given here; in the data, active = GI50 up to about 1.1 µM and inactive = higher. Residues, ends and D or L forms follow the SMILES beside them. *: point of attachment. OBn = c1ccc(CO*)cc1

Key:
Assay in all cases: NCI anticancer screen, dose series, 48 h
UACC-257 = tested on: UACC-257
LOX IMVI = tested on: LOX IMVI
BT-549 = tested on: BT-549
NCI-H460 = tested on: NCI-H460
SF-539 = tested on: SF-539
HT-29 = tested on: HT-29
SK-MEL-5 = tested on: SK-MEL-5
NCI-H23 = tested on: NCI-H23
SK-OV-3 = tested on: SK-OV-3
SNB-19 = tested on: SNB-19
RPMI-8226 = tested on: RPMI-8226
OVCAR-8 = tested on: OVCAR-8
NCI-H226 = tested on: NCI-H226
RXF 393 = tested on: RXF 393
TK-10 = tested on: TK-10
HCT-116 = tested on: HCT-116
K562 = tested on: K562
OVCAR-4 = tested on: OVCAR-4
CCRF-CEM = tested on: CCRF-CEM

SMILES	GI50 (UACC-257)	GI50 (LOX IMVI)	GI50 (BT-549)	GI50 (NCI-H460)	GI50 (SF-539)	GI50 (HT-29)	GI50 (SK-MEL-5)	GI50 (NCI-H23)	GI50 (SK-OV-3)	GI50 (SNB-19)	GI50 (RPMI-8226)	GI50 (OVCAR-8)	GI50 (NCI-H226)	GI50 (RXF 393)	GI50 (TK-10)	GI50 (HCT-116)	GI50 (K562)	GI50 (OVCAR-4)	GI50 (CCRF-CEM)
CCOC1=C/C(=N\Nc2ccc([N+](=O)[O-])cc2)CCC1	63.8 µM (inactive)	8.77 µM (inactive)	13.6 µM (inactive)	25.4 µM (inactive)	48.1 µM (inactive)	14.6 µM (inactive)	18.9 µM (inactive)	18.5 µM (inactive)	44.7 µM (inactive)	34.7 µM (inactive)	14.9 µM (inactive)	16.4 µM (inactive)	41.9 µM (inactive)	21.9 µM (inactive)	25.5 µM (inactive)	41.7 µM (inactive)	18.9 µM (inactive)	13.8 µM (inactive)	–
CCCCCCNC(=S)N/N=C(\C)c1ccccn1	0.01 µM (active)	0.0493 µM (active)	0.111 µM (active)	0.347 µM (active)	1.84 µM (inactive)	–	0.299 µM (active)	< 0.0311 µM (active)	0.181 µM (active)	3.4 µM (inactive)	< 0.01 µM (active)	0.0912 µM (active)	0.138 µM (active)	0.0189 µM (active)	0.55 µM (active)	< 0.01 µM (active)	< 0.01 µM (active)	11.4 µM (inactive)	< 0.01 µM (active)
NC(CCC(=O)OCc1ccccc1)C(=O)NC(CCC(=O)OCc1ccccc1)C(=O)O (stereo unspecified) (H-Glu(OBn)-Glu(OBn)-OH; configuration not given here)	–	> 100 µM (inactive)	> 100 µM (inactive)	> 100 µM (inactive)	–	> 100 µM (inactive)	> 100 µM (inactive)	> 100 µM (inactive)	> 100 µM (inactive)	> 100 µM (inactive)	> 100 µM (inactive)	> 100 µM (inactive)	> 100 µM (inactive)	> 100 µM (inactive)	> 100 µM (inactive)	> 100 µM (inactive)	> 100 µM (inactive)	> 100 µM (inactive)	> 100 µM (inactive)
C[N+]1(Cc2ccc(Cl)c(Cl)c2)CCCC1C1CCCN(Cc2ccc(Cl)c(Cl)c2)C1 (stereo unspecified)	> 100 µM (inactive)	> 100 µM (inactive)	> 100 µM (inactive)	> 100 µM (inactive)	> 100 µM (inactive)	> 100 µM (inactive)	32.2 µM (inactive)	> 100 µM (inactive)	> 100 µM (inactive)	> 100 µM (inactive)	> 100 µM (inactive)	> 100 µM (inactive)	–	> 100 µM (inactive)	> 100 µM (inactive)	> 100 µM (inactive)	52.4 µM (inactive)	> 100 µM (inactive)	–
COc1ccc(NC2=CC(=O)C(=O)c3ccccc32)nn1	1.72 µM (inactive)	1.66 µM (inactive)	0.743 µM (active)	1.54 µM (inactive)	0.902 µM (active)	1.64 µM (inactive)	0.643 µM (active)	1.91 µM (inactive)	2.17 µM (inactive)	2.9 µM (inactive)	1.51 µM (inactive)	1.67 µM (inactive)	2.31 µM (inactive)	1.36 µM (inactive)	3.56 µM (inactive)	–	0.224 µM (active)	1.41 µM (inactive)	2.92 µM (inactive)
CSc1nc(N)c(NC2OC(CO)C(O)C2O)c(=O)[nH]1 (stereo unspecified)	> 100 µM (inactive)	> 100 µM (inactive)	> 100 µM (inactive)	> 100 µM (inactive)	> 100 µM (inactive)	> 100 µM (inactive)	> 100 µM (inactive)	–	> 100 µM (inactive)	> 100 µM (inactive)	> 100 µM (inactive)	> 100 µM (inactive)	> 100 µM (inactive)	> 100 µM (inactive)	> 100 µM (inactive)	> 100 µM (inactive)	> 100 µM (inactive)	> 100 µM (inactive)	> 100 µM (inactive)
NC(=O)c1cc2ccc(O)cc2o/c1=N/NC(=O)c1ccccc1	> 100 µM (inactive)	47.8 µM (inactive)	52.2 µM (inactive)	40.2 µM (inactive)	–	> 100 µM (inactive)	39.8 µM (inactive)	89.9 µM (inactive)	61.2 µM (inactive)	> 100 µM (inactive)	77.3 µM (inactive)	67.8 µM (inactive)	39.4 µM (inactive)	40.6 µM (inactive)	36.1 µM (inactive)	66.2 µM (inactive)	75.5 µM (inactive)	> 100 µM (inactive)	48.6 µM (inactive)
Cc1ccc(C)c2c1n1c(=O)n(C)c(=O)n21	> 100 µM (inactive)	> 100 µM (inactive)	> 100 µM (inactive)	> 100 µM (inactive)	> 100 µM (inactive)	> 100 µM (inactive)	> 100 µM (inactive)	> 100 µM (inactive)	> 100 µM (inactive)	> 100 µM (inactive)	> 100 µM (inactive)	> 100 µM (inactive)	> 100 µM (inactive)	> 100 µM (inactive)	> 100 µM (inactive)	> 100 µM (inactive)	–	> 100 µM (inactive)	> 100 µM (inactive)
CCCCON1C[C@@H](O)C(O)[C@@H](O)C1 (stereo partly specified)	> 100 µM (inactive)	> 100 µM (inactive)	> 100 µM (inactive)	> 100 µM (inactive)	> 100 µM (inactive)	> 100 µM (inactive)	> 100 µM (inactive)	> 100 µM (inactive)	–	> 100 µM (inactive)	> 100 µM (inactive)	> 100 µM (inactive)	> 100 µM (inactive)	> 100 µM (inactive)	> 100 µM (inactive)	> 100 µM (inactive)	> 100 µM (inactive)	> 100 µM (inactive)	> 100 µM (inactive)
COc1ccc(/C=C2\N=C(N3CCCCC3)NC2=O)cc1	> 100 µM (inactive)	95.1 µM (inactive)	> 100 µM (inactive)	–	54 µM (inactive)	> 100 µM (inactive)	–	> 100 µM (inactive)	> 100 µM (inactive)	> 100 µM (inactive)	> 100 µM (inactive)	> 100 µM (inactive)	> 100 µM (inactive)	64 µM (inactive)	> 100 µM (inactive)	> 100 µM (inactive)	–	> 100 µM (inactive)	> 100 µM (inactive)
Brc1ccc(C2(N3CCCCC3)CCCCC2)s1	29.8 µM (inactive)	11.7 µM (inactive)	30.5 µM (inactive)	26.7 µM (inactive)	–	23.5 µM (inactive)	0.561 µM (active)	37.3 µM (inactive)	45.2 µM (inactive)	73.1 µM (inactive)	19.6 µM (inactive)	–	–	14.3 µM (inactive)	37.5 µM (inactive)	> 100 µM (inactive)	21.1 µM (inactive)	40.7 µM (inactive)	18.3 µM (inactive)
CC(=O)Nc1c(C)cc2c(nc3n2CCC3OC(C)=O)c1[N+](=O)[O-] (stereo unspecified)	> 100 µM (inactive)	> 100 µM (inactive)	> 100 µM (inactive)	> 100 µM (inactive)	> 100 µM (inactive)	> 100 µM (inactive)	> 100 µM (inactive)	> 100 µM (inactive)	> 100 µM (inactive)	> 100 µM (inactive)	> 100 µM (inactive)	> 100 µM (inactive)	> 100 µM (inactive)	7.98 µM (inactive)	–	> 100 µM (inactive)	> 100 µM (inactive)	> 100 µM (inactive)	> 100 µM (inactive)
Cc1cc(Br)c(N2C3=C(CC4=C2CCCC4=O)C(=O)CCC3)c(Br)c1	–	23.7 µM (inactive)	51.3 µM (inactive)	31.5 µM (inactive)	> 100 µM (inactive)	42.3 µM (inactive)	38.7 µM (inactive)	50.9 µM (inactive)	> 100 µM (inactive)	> 100 µM (inactive)	27.4 µM (inactive)	44.6 µM (inactive)	72.1 µM (inactive)	25.8 µM (inactive)	> 100 µM (inactive)	–	13.2 µM (inactive)	93.5 µM (inactive)	10.3 µM (inactive)
CC[C@H](C)[C@@H]([C@@H](CC(=O)N1CCC[C@H]1[C@H](OC)[C@@H](C)C(=O)NCCc1ccccc1)OC)N(C)C(=O)C(NC(=O)[C@H](C(C)C)N(C)C)C(C)C (stereo partly specified)	0.00139 µM (active)	0.000299 µM (active)	0.000588 µM (active)	0.000211 µM (active)	0.000232 µM (active)	8.89e-05 µM (active)	4.18e-05 µM (active)	0.000314 µM (active)	–	0.000395 µM (active)	0.000203 µM (active)	0.000333 µM (active)	0.00064 µM (active)	0.000174 µM (active)	0.000676 µM (active)	0.000255 µM (active)	6.68e-05 µM (active)	0.00094 µM (active)	0.000219 µM (active)
O=C(O)c1ccc(C(c2c(O)oc3ccccc3c2=O)c2c(O)oc3ccccc3c2=O)cc1	> 100 µM (inactive)	> 100 µM (inactive)	> 100 µM (inactive)	> 100 µM (inactive)	> 100 µM (inactive)	> 100 µM (inactive)	> 100 µM (inactive)	59.7 µM (inactive)	> 100 µM (inactive)	> 100 µM (inactive)	1.02 µM (active)	> 100 µM (inactive)	–	> 100 µM (inactive)	–	> 100 µM (inactive)	15.5 µM (inactive)	–	25.2 µM (inactive)
